Assay results reported in publication PMC10364322, “Evaluation of chronic drug-induced electrophysiological and cytotoxic effects using human-induced pluripotent stem cell-derived cardiomyocytes (hiPSC-CMs)” (Frontiers in Pharmacology, 2023).
Like-named read-outs stand apart in the source and are kept apart here.

Tested on: hiPSC-CMs (iCell-Cardiomyocytes^2)
Outline: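 Monolayers of hiPSC-CMs on fibronectin-coated MEA plates, 50 K/well, kept at 37°C, 5% CO2; compounds added in 0.1% final DMSO after 5-min baseline. Field potential and impedance parameters expressed as mean ± SD percent change from baseline; arrhythmic events noted; cytotoxicity fluorescence normalized to DMSO, Kruskal-Wallis.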

Compound: C#Cc1cccc(Nc2ncnc3cc(OCCOC)c(OCCOC)cc23)c1 [Erlotinib]
- BR (beat rate) % change from baseline (0.3 µM, 2h): 3±3%
- Beating below threshold, number of observations/total well numbers (0.3 µM, 2h): 0/5
- Cessation of beating, number of observations/total well numbers (0.3 µM, 2h): 0/5
- EAD, number of observations/total well numbers (0.3 µM, 2h): 0/5
- FPD (field-potential duration), % change from baseline (0.3 µM, 2h): 0.6±0.9%
- FPDc (field-potential duration corrected by beat-rate), % change from baseline (0.3 µM, 2h): 1.6±1.1%
- Flat T-wave-like, number of observations/total well numbers (0.3 µM, 2h): 0/5
- BR (beat rate) % change from baseline (0.3 µM, 24h): -1±5%
- Beating below threshold, number of observations/total well numbers (0.3 µM, 24h): 0/5
- Cessation of beating, number of observations/total well numbers (0.3 µM, 24h): 0/5
- EAD, number of observations/total well numbers (0.3 µM, 24h): 0/5
- FPD (field-potential duration), % change from baseline (0.3 µM, 24h): 7.8±3.3%
- FPDc (field-potential duration corrected by beat-rate), % change from baseline (0.3 µM, 24h): 7.4±1.9%
- Flat T-wave-like, number of observations/total well numbers (0.3 µM, 24h): 0/5
- BR (beat rate) % change from baseline (0.3 µM, 48h): -12±1%
- Beating below threshold, number of observations/total well numbers (0.3 µM, 48h): 0/5
- Cessation of beating, number of observations/total well numbers (0.3 µM, 48h): 0/5
- EAD, number of observations/total well numbers (0.3 µM, 48h): 0/5
- FPD (field-potential duration), % change from baseline (0.3 µM, 48h): 16.2±1.3%
- FPDc (field-potential duration corrected by beat-rate), % change from baseline (0.3 µM, 48h): 11.5±0.7%
- Flat T-wave-like, number of observations/total well numbers (0.3 µM, 48h): 0/5
- BR (beat rate) % change from baseline (0.3 µM, 72h): -8±2%
- Beating below threshold, number of observations/total well numbers (0.3 µM, 72h): 0/5
- Cessation of beating, number of observations/total well numbers (0.3 µM, 72h): 0/5
- EAD, number of observations/total well numbers (0.3 µM, 72h): 0/5
- FPD (field-potential duration), % change from baseline (0.3 µM, 72h): 14.6±3.1%
- FPDc (field-potential duration corrected by beat-rate), % change from baseline (0.3 µM, 72h): 11.4±2.8%
- Flat T-wave-like, number of observations/total well numbers (0.3 µM, 72h): 0/5
- BR (beat rate) % change from baseline (0.3 µM, 96h): -14±1%
- Beating below threshold, number of observations/total well numbers (0.3 µM, 96h): 0/5
- Cessation of beating, number of observations/total well numbers (0.3 µM, 96h): 0/5
- EAD, number of observations/total well numbers (0.3 µM, 96h): 0/5
- FPD (field-potential duration), % change from baseline (0.3 µM, 96h): 21.2±1.9%
- FPDc (field-potential duration corrected by beat-rate), % change from baseline (0.3 µM, 96h): 15.1±1.6%
- Flat T-wave-like, number of observations/total well numbers (0.3 µM, 96h): 0/5
- BR (beat rate) % change from baseline (1 µM, 2h): 1±1%
- Beating below threshold, number of observations/total well numbers (1 µM, 2h): 0/5
- Cessation of beating, number of observations/total well numbers (1 µM, 2h): 0/5
- EAD, number of observations/total well numbers (1 µM, 2h): 0/5
- FPD (field-potential duration), % change from baseline (1 µM, 2h): 3.4±1%
- FPDc (field-potential duration corrected by beat-rate), % change from baseline (1 µM, 2h): 3.8±0.8%
- Flat T-wave-like, number of observations/total well numbers (1 µM, 2h): 0/5
- BR (beat rate) % change from baseline (1 µM, 24h): 0±5%
- Beating below threshold, number of observations/total well numbers (1 µM, 24h): 0/5
- Cessation of beating, number of observations/total well numbers (1 µM, 24h): 0/5
- EAD, number of observations/total well numbers (1 µM, 24h): 0/5
- FPD (field-potential duration), % change from baseline (1 µM, 24h): 5.5±5.8%
- FPDc (field-potential duration corrected by beat-rate), % change from baseline (1 µM, 24h): 5.6±4%
- Flat T-wave-like, number of observations/total well numbers (1 µM, 24h): 0/5
- BR (beat rate) % change from baseline (1 µM, 48h): -13±3%
- Beating below threshold, number of observations/total well numbers (1 µM, 48h): 0/5
- Cessation of beating, number of observations/total well numbers (1 µM, 48h): 0/5
- EAD, number of observations/total well numbers (1 µM, 48h): 0/5
- FPD (field-potential duration), % change from baseline (1 µM, 48h): 16.6±3.6%
- FPDc (field-potential duration corrected by beat-rate), % change from baseline (1 µM, 48h): 11.3±2.2%
- Flat T-wave-like, number of observations/total well numbers (1 µM, 48h): 0/5
- BR (beat rate) % change from baseline (1 µM, 72h): -9±2%
- Beating below threshold, number of observations/total well numbers (1 µM, 72h): 0/5
- Cessation of beating, number of observations/total well numbers (1 µM, 72h): 0/5
- EAD, number of observations/total well numbers (1 µM, 72h): 0/5
- FPD (field-potential duration), % change from baseline (1 µM, 72h): 14.7±3.9%
- FPDc (field-potential duration corrected by beat-rate), % change from baseline (1 µM, 72h): 11±3.3%
- Flat T-wave-like, number of observations/total well numbers (1 µM, 72h): 0/5
- BR (beat rate) % change from baseline (1 µM, 96h): -16±2%
- Beating below threshold, number of observations/total well numbers (1 µM, 96h): 0/5
- Cessation of beating, number of observations/total well numbers (1 µM, 96h): 0/5
- EAD, number of observations/total well numbers (1 µM, 96h): 0/5
- FPD (field-potential duration), % change from baseline (1 µM, 96h): 22.4±3.5%
- FPDc (field-potential duration corrected by beat-rate), % change from baseline (1 µM, 96h): 15.1±2.5%
- Flat T-wave-like, number of observations/total well numbers (1 µM, 96h): 0/5
- BR (beat rate) % change from baseline (3 µM, 72h): -10±2%
- Beating below threshold, number of observations/total well numbers (3 µM, 72h): 0/5
- Cessation of beating, number of observations/total well numbers (3 µM, 72h): 0/5
- EAD, number of observations/total well numbers (3 µM, 72h): 0/5
- FPD (field-potential duration), % change from baseline (3 µM, 72h): 10.9±3.3%
- FPDc (field-potential duration corrected by beat-rate), % change from baseline (3 µM, 72h): 7.1±2.8%
- Flat T-wave-like, number of observations/total well numbers (3 µM, 72h): 0/5
- BR (beat rate) % change from baseline (3 µM, 96h): -18±2%
- Beating below threshold, number of observations/total well numbers (3 µM, 96h): 0/5
- Cessation of beating, number of observations/total well numbers (3 µM, 96h): 0/5
- EAD, number of observations/total well numbers (3 µM, 96h): 0/5
- FPD (field-potential duration), % change from baseline (3 µM, 96h): 18.9±1.9%
- FPDc (field-potential duration corrected by beat-rate), % change from baseline (3 µM, 96h): 11.7±1.1%
- Flat T-wave-like, number of observations/total well numbers (3 µM, 96h): 0/5
- BR (beat rate) % change from baseline (3 µM, 2h): 1±2%
- Beating below threshold, number of observations/total well numbers (3 µM, 2h): 0/5
- Cessation of beating, number of observations/total well numbers (3 µM, 2h): 0/5
- EAD, number of observations/total well numbers (3 µM, 2h): 0/5
- FPD (field-potential duration), % change from baseline (3 µM, 2h): 2±3%
- FPDc (field-potential duration corrected by beat-rate), % change from baseline (3 µM, 2h): 2.4±2.4%
- Flat T-wave-like, number of observations/total well numbers (3 µM, 2h): 0/5
- BR (beat rate) % change from baseline (3 µM, 24h): 2±3%
- Beating below threshold, number of observations/total well numbers (3 µM, 24h): 0/5
- Cessation of beating, number of observations/total well numbers (3 µM, 24h): 0/5
- EAD, number of observations/total well numbers (3 µM, 24h): 0/5
- FPD (field-potential duration), % change from baseline (3 µM, 24h): 0.1±4%
- FPDc (field-potential duration corrected by beat-rate), % change from baseline (3 µM, 24h): 0.7±3%
- Flat T-wave-like, number of observations/total well numbers (3 µM, 24h): 0/5
- BR (beat rate) % change from baseline (3 µM, 48h): -13±3%
- Beating below threshold, number of observations/total well numbers (3 µM, 48h): 0/5
- Cessation of beating, number of observations/total well numbers (3 µM, 48h): 0/5
- EAD, number of observations/total well numbers (3 µM, 48h): 0/5
- FPD (field-potential duration), % change from baseline (3 µM, 48h): 11±2.4%
- FPDc (field-potential duration corrected by beat-rate), % change from baseline (3 µM, 48h): 5.9±1.1%
- Flat T-wave-like, number of observations/total well numbers (3 µM, 48h): 0/5
- wells with flat T-wave (10 µM (highest concentration)): One well on 5
- BR (beat rate) % change from baseline (10 µM, 2h): 1±1%
- Beating below threshold, number of observations/total well numbers (10 µM, 2h): 0/5
- Cessation of beating, number of observations/total well numbers (10 µM, 2h): 0/5
- EAD, number of observations/total well numbers (10 µM, 2h): 0/5
- FPD (field-potential duration), % change from baseline (10 µM, 2h): 3.5±0.9%
- FPDc (field-potential duration corrected by beat-rate), % change from baseline (10 µM, 2h): 3.9±1.1%
- Flat T-wave-like, number of observations/total well numbers (10 µM, 2h): 0/5
- BR (beat rate) % change from baseline (10 µM, 24h): -1±7%
- Beating below threshold, number of observations/total well numbers (10 µM, 24h): 0/5
- Cessation of beating, number of observations/total well numbers (10 µM, 24h): 0/5
- EAD, number of observations/total well numbers (10 µM, 24h): 0/5
- FPD (field-potential duration), % change from baseline (10 µM, 24h): 7.2±5.8%
- FPDc (field-potential duration corrected by beat-rate), % change from baseline (10 µM, 24h): 6.3±4.1%
- Flat T-wave-like, number of observations/total well numbers (10 µM, 24h): 1/5
- BR (beat rate) % change from baseline (10 µM, 48h): -15±4%
- Beating below threshold, number of observations/total well numbers (10 µM, 48h): 0/5
- Cessation of beating, number of observations/total well numbers (10 µM, 48h): 0/5
- EAD, number of observations/total well numbers (10 µM, 48h): 0/5
- FPD (field-potential duration), % change from baseline (10 µM, 48h): 15.4±2.7%
- FPDc (field-potential duration corrected by beat-rate), % change from baseline (10 µM, 48h): 8.7±1.6%
- Flat T-wave-like, number of observations/total well numbers (10 µM, 48h): 1/5
- BR (beat rate) % change from baseline (10 µM, 72h): -13±4%
- Beating below threshold, number of observations/total well numbers (10 µM, 72h): 0/5
- Cessation of beating, number of observations/total well numbers (10 µM, 72h): 0/5
- EAD, number of observations/total well numbers (10 µM, 72h): 0/5
- FPD (field-potential duration), % change from baseline (10 µM, 72h): 16.4±6.7%
- FPDc (field-potential duration corrected by beat-rate), % change from baseline (10 µM, 72h): 10.6±6%
- Flat T-wave-like, number of observations/total well numbers (10 µM, 72h): 1/5
- BR (beat rate) % change from baseline (10 µM, 96h): -19±2%
- Beating below threshold, number of observations/total well numbers (10 µM, 96h): 0/5
- Cessation of beating, number of observations/total well numbers (10 µM, 96h): 0/5
- EAD, number of observations/total well numbers (10 µM, 96h): 0/5
- FPD (field-potential duration), % change from baseline (10 µM, 96h): 25±8.1%
- FPDc (field-potential duration corrected by beat-rate), % change from baseline (10 µM, 96h): 16±6.6%
- Flat T-wave-like, number of observations/total well numbers (10 µM, 96h): 1/5
- arrhythmic-like events (all concentrations tested): no arrhythmic-like events were observed
- changes in BR (all concentrations tested): nor significant changes in BR
- prolongation of FPD / FPDc (all concentrations tested): did not observe any physiologically relevant prolongation in FPD and FPDc
- effect on hiPSC-CMs electrophysiology or cytotoxicity (up to ∼ three times the estimated fCmax): did not detect any significant effect on hiPSC-CMs electrophysiology or cytotoxicity
